Source: ChEMBL document CHEMBL1128052, “Further structure-activity-relationship studies on A/C/D-ring analogs of complement inhibitor K-76” (Bioorg Med Chem Lett, 1995)
pEC50, pIC50: −log10 of the molar value.

What was measured:
[1] = Intrinsic Lytic Activity required to cause 50% hemolysis in the absence of complement; format: functional, Ovis aries
[2] = organism: Homo sapiens; test: Inhibitory concentration required to inhibit human complement induced hemolysis by 50%; format: functional, organism-based
[3] = Intrinsic Lytic Activity required to cause 50% hemolysis in the absence of complement; Not bioassayed; format: functional, Ovis aries

Question: With `CC1=CCC([C@]2(C)Cc3c(Oc4ccccc4)cc(C(=O)O)cc3O2)CC1` (stereo partly specified) as the compound, how does the pEC50 [1] read?
Answer: > 3.70

Question: And the pIC50 [2]?
Answer: < 3.08

Question: With `CC1=CCC([C@]2(C)Cc3c(O)cc(C=O)cc3O2)CC1` (stereo partly specified) as the compound, how does the pEC50 [1] read?
Answer: > 3.55

Question: And the pIC50 [2]?
Answer: 3.29

Question: Which results are given for `COc1ccc(C(=O)O)c2c1C[C@@](C)(C1CC=C(C)CC1)O2` (stereo partly specified)?
Answer: EC50 [3]: Not bioassayed; pIC50 [2]: 3.42

Question: With `CC1=CCC([C@]2(C)Cc3c(O)cc(C(=O)O)cc3O2)CC1` (stereo partly specified) as the compound, how does the pEC50 [1] read?
Answer: < 2.98

Question: What about the pIC50 [2] of the same compound?
Answer: 3.14

Question: Which results are given for `COc1ccc(C(=O)O)c2c1C[C@](C)(C1CC[C@](C)(O)[C@H](O)C1)O2` (stereo partly specified)?
Answer: EC50 [3]: Not bioassayed; pIC50 [2]: 2.80

Question: What does the source list for `C[C@@H]1CCC2C(C)(C)[C@H](O)[C@H](O)C[C@]2(C)[C@@]12Cc1c(O)cc(C(=O)O)c(C=O)c1O2` (stereo partly specified)?
Answer: pEC50 [1]: < 3.17; pIC50 [2]: 3.17

Question: With `COc1cc(C=O)cc2c1C[C@@](C)(C1CC=C(C)CC1)O2` (stereo partly specified) as the compound, how does the pEC50 [1] read?
Answer: < 2.98

Question: What about the pIC50 [2] of the same compound?
Answer: < 2.98

Question: Which EC50 [3] does the source give for `CC1=CCC([C@@]2(C)Cc3c(O)ccc(C(=O)O)c3O2)CC1` (stereo partly specified) here?
Answer: Not bioassayed

Question: And the pIC50 [2]?
Answer: 2.68

Question: For `COc1ccc(C(=O)O)c2c1C[C@](C)(C1CC=C(C)CC1)O2` (stereo partly specified), which EC50 [3] is on record?
Answer: Not bioassayed

Question: What about the pIC50 [2] of the same compound?
Answer: 3.17

Question: With `CC1=CCC([C@]2(C)Cc3c(Oc4ccccc4)cc(C=O)cc3O2)CC1` (stereo partly specified) as the compound, how does the pEC50 [1] read?
Answer: < 3.06

Question: And the pIC50 [2]?
Answer: < 3.06

Question: With `COc1cc(C(=O)O)cc2c1C[C@@](C)(C1CC=C(C)CC1)O2` (stereo partly specified) as the compound, how does the pEC50 [1] read?
Answer: 3.18

Question: And the pIC50 [2]?
Answer: < 3.00

Question: With `COc1cc(C(=O)O)cc2c1CC(C)(C1CC[C@](C)(O)[C@H](O)C1)O2` (stereo partly specified) as the compound, how does the pEC50 [1] read?
Answer: < 3.05

Question: And the pIC50 [2]?
Answer: < 3.05

Question: What does the source list for `CC1=CCC([C@]2(C)Cc3c(O)ccc(C(=O)O)c3O2)CC1` (stereo partly specified)?
Answer: EC50 [3]: Not bioassayed; pIC50 [2]: 2.62
